How the values were obtained:
Hos:HR-1 mice = experiment: Preventive effect on skin cancer in ultraviolet light-irradiated hairless mice; format: in vivo; settings: 3% AMP2Na in 20% ethanol aqueous solution, 0.1 mL on the back twice a day, 5 days a week
Method: In this Example, hairless mice were irradiated with ultraviolet light, and the preventive effect of AMP2Na against photocarcinogenesis in the mice was examined.
5-week-old female Hos:HR-1 mice were purchased from Japan SLC, Inc., and from the age of 7 weeks, ultraviolet light (UV-B) irradiation was performed on their back. The ultraviolet irradiation (irradiation amount per time: 60 mJ/cm^2) was performed once a day, 5 days a week, for 12 weeks.
Then, a 20% ethanol aqueous solution containing 3% of AMP2Na dissolved therein (test solution) and a 20% ethanol aqueous solution containing no AMP2Na (base) were prepared.
After feeding the ultraviolet light-irradiated mice under normal conditions for 1 week, the mice were divided into 3 groups (6 mice in each group) under the conditions shown in Table 1, and fed for 12 weeks.
The development of tumors was determined, and the number of tumors was counted.

JB6 cells = experiment: Amount of cyclobutane pyrimidine dimers (CPD) in genomic DNA of UV-B irradiated JB6 cells, by ELISA; format: cell-based, mouse; settings: 15 mJ/cm^2 UV-B, 48 h
Method: In this Example, normal mouse epidermal cells were irradiated with ultraviolet light, and then cultured in an AMP2Na-containing culture medium. Using the amount of cyclobutane pyrimidine dimers (CPD) as an index, the action of AMP2Na to reduce DNA mutation was examined.
Normal mouse epidermal cell-derived JB6 cells (purchased from ATCC) were cultured in an FBS-containing MEM culture medium until subconfluent. Subsequently, 4×10^5 cultured cells were seeded into a 3.5 cm-dish with MEM (minimum essential medium) culture medium containing FBS (fetal bovine serum). Next day after the seeding, the culture medium was replaced with a serum-free MEM culture medium for serum starvation. Subsequently, the culture medium was replaced with PBS, followed by the irradiation with 15 mJ/cm^2 of UV-B. After ultraviolet irradiation, the culture medium was replaced with serum-free MEM culture medium containing 0.01 mM, 0.1 mM, or 1 mM AMP2Na or AMP2Na-free culture-medium (control). After the replacement of the culture medium, the cells were cultured with 5% CO2 at 37° C. for 48 hours, and then collected.
Genomic DNA was extracted from the collected cells using a FastPure (trademark) DNA kit (Takara Bio Inc.). The extraction was carried out in accordance with the kit manual.
The amount of CPD in genomic DNA extracted from each cell was measured using ELISA. In particular, the extracted genomic DNA was heated at 100° C. for 10 minutes, and cooled on ice. Subsequently, genomic DNA was dispensed (50 μL/well) into a 96-well microplate coated with protamine sulfate, and dried. The following day, each of the wells was washed with PBS-T (PBS with Tween 20), and FBS-containing PBS was dispensed into each of the wells. The wells were then kept for 30 minutes at 37° C. […] Subsequently, the absorbance values at 492 nm were measured, and the amount of CPD in genomic DNA was calculated to determine the rate of change of CPD (variation in the relative amount of CPD; %) under each condition when the amount of CPD in the case of cultivation in the AMP2Na-free culture medium was assigned a value of 100%.

caspase 3 = experiment: Caspase 3 activity in human epidermal keratinocytes treated with AMP2Na, with or without UV-B irradiation; format: cell-based
Description: The present Example examined a change in the caspase activity when human epidermal cells treated with disodium adenosine 5′-monophosphate (AMP2Na) were irradiated with ultraviolet light.
Human epidermal keratinocytes (purchased from Kurabo Industries Ltd.) were precultured using EpiLife-KG2 culture medium (produced by Kurabo Industries Ltd.) in 10 cm collagen-coated petri dishes (produced by Asahi Glass Co., Ltd.), and seeded at a density of 30,000 cells/well into a collagen-coated 96-well microplate. After cultivation in the EpiLife-KG2 culture medium for 8 hours, the culture medium was replaced with EpiLife culture medium (produced by Kurabo Industries Ltd.), followed by cultivation for an additional 16 hours. Subsequently, the culture medium was replaced with AMP2Na-containing culture medium adjusted to various concentrations. […] Subsequently, the activity of caspase 3 expressed in the cells were measured using a SensoLyte™ Rh110 Caspase 3 Assay Kit (produced by AnaSpec, Inc.). […] Further, in order to examine influences that AMP2Na affect the caspase activity of normal cells, caspase activity of the cells that were not irradiated with UV-B but treated with AMP2Na was determined. […]

[1] = 6th week from start of application

## Nc1ncnc2c1ncn2[C@@H]1O[C@H](COP(=O)([O-])[O-])[C@@H](O)[C@H]1O.[Na+].[Na+] [AMP2Na, disodium adenosine 5′-monophosphate]
Hos:HR-1 mice; [1]
  average number of tumors developed per mouse: 0
  tumor formation on the back of the mice: not in the test solution-applied group
  tumor incidence: 0%
Hos:HR-1 mice; 12th week from start of application
  tumor incidence: 17%
JB6 cells; then 0.1 mM AMP2Na, versus control
  relative amount of CPD: decrease in the relative amount of CPD compared to the control group was significant
JB6 cells; then 1 mM AMP2Na, versus control
  relative amount of CPD: decrease in the relative amount of CPD compared to the control group was significant
JB6 cells; then AMP2Na added (0.01, 0.1 or 1 mM), AMP2Na-free control = 100%
  relative amount of CPD: decreased compared to the control group
Caspase 3; human epidermal keratinocytes pretreated 2 h with AMP2Na, then 30 mJ/cm^2 UV-B, measured after 6 h cultivation
  caspase activity: significant increase in the caspase activity
Caspase 3; non-ultraviolet-irradiated human epidermal keratinocytes, 2 h treatment with AMP2Na-containing medium at various concentrations
  caspase activity: almost no increase in the caspase activity

— patent US9125928B2, “Agent for suppressing the formation of abnormal skin cells caused by exposure to light” (OTSUKA PHARMACEUTICAL CO., LTD., priority 2010, dated 2015)
